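A five-concentration, 48-hour dose response in 96-well plates underlies each endpoint, interpolated linearly between surrounding concentrations. GI50 is the concentration that inhibits growth by half.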 Active and inactive are the calls of the source. Rule as the data show it: active = GI50 up to about 1.1 µM and inactive = higher.
Columns and labels:
Assay in all cases: growth of human tumour cells (NCI), 48 h
[1] = system: MDA-MB-231
[2] = system: CAKI-1
[3] = system: PC-3
[4] = system: NCI-H522
[5] = system: MOLT-4
[6] = system: NCI-H226
[7] = system: CCRF-CEM
[8] = system: HCC 2998
[9] = system: ACHN
[10] = system: MDA-MB-435
[11] = system: MDA-N
[12] = system: A498
[13] = system: SNB-75
[14] = system: HOP-62
[15] = system: COLO 205
[16] = system: SN12C
[17] = system: K562
[18] = system: SF-539
[19] = system: OVCAR-4

Measured: GI50

O=C1OC2C=CCC1C2 (stereo not given)
inactive: [1] > 100 µM | [2] > 100 µM | [3] > 100 µM | [4] > 100 µM | [5] > 100 µM | [6] > 100 µM | [7] > 100 µM | [8] > 100 µM | [9] > 100 µM | [10] > 100 µM | [11] > 100 µM | [12] > 100 µM | [13] > 100 µM | [14] > 100 µM | [15] > 100 µM | [16] > 100 µM | [17] > 100 µM | [18] > 100 µM

c1ccc2c(c1)-c1nc3ccccc3cc1C2N1CCOCC1 (stereo not given)
inactive: [1] > 100 µM | [2] > 100 µM | [3] > 100 µM | [4] 43.5 µM | [5] 57.9 µM | [6] > 100 µM | [19] 47.6 µM | [7] 28.4 µM | [9] > 100 µM | [10] > 100 µM | [11] > 100 µM | [12] > 100 µM | [13] > 100 µM | [14] > 100 µM | [15] > 100 µM | [16] > 100 µM | [17] > 100 µM

O=P(c1ccccc1)(c1ccccc1)c1ccc2c(c1)OCCOCCOCCOCCO2
inactive: [1] > 100 µM | [2] > 100 µM | [3] > 100 µM | [4] > 100 µM | [5] > 100 µM | [6] > 100 µM | [7] > 100 µM | [8] > 100 µM | [9] > 100 µM | [10] > 100 µM | [11] > 100 µM | [12] > 100 µM | [13] > 100 µM | [14] > 100 µM | [15] > 100 µM | [16] > 100 µM | [17] > 100 µM | [18] > 100 µM

COC(=O)C(=O)c1cc2ccccc2n1S(=O)(=O)c1ccccc1
inactive: [1] > 100 µM | [2] > 100 µM | [3] > 100 µM | [4] > 100 µM | [5] > 100 µM | [19] > 100 µM | [7] > 100 µM | [8] > 100 µM | [9] > 100 µM | [10] > 100 µM | [11] > 100 µM | [12] > 100 µM | [13] 84.5 µM | [14] > 100 µM | [15] > 100 µM | [16] > 100 µM | [17] > 100 µM | [18] > 100 µM

CCOC(=O)CCc1c(C)nc2c(C)c3c([nH]c4ccc(Cl)cc43)c(C)c2c1O
inactive: [1] 12.6 µM | [2] 18.2 µM | [3] 4.19 µM | [4] 6.81 µM | [5] 6.01 µM | [6] 17.1 µM | [19] 6.89 µM | [7] 7.91 µM | [8] 14.1 µM | [9] 12.1 µM | [10] 9.18 µM | [11] 10.7 µM | [12] 1.8 µM | [13] 4.37 µM | [14] 12.3 µM | [15] 10.4 µM | [18] 11.2 µM

COC(=O)OC[C@H]1O[C@@H](n2cc(C)c(=O)[nH]c2=O)CC1OC(=O)OC (stereo not given in full)
inactive: [1] > 100 µM | [3] > 100 µM | [4] > 100 µM | [5] > 100 µM | [6] > 100 µM | [19] > 100 µM | [7] > 100 µM | [8] > 100 µM | [9] > 100 µM | [10] > 100 µM | [11] > 100 µM | [12] > 100 µM | [13] 95.3 µM | [14] > 100 µM | [15] > 100 µM | [16] > 100 µM | [17] > 100 µM | [18] > 100 µM

CN1CCc2cc3c(c4c2C1C(O)c1ccccc1-4)OCO3 (stereo not given)
inactive: [1] 6.05 µM | [2] 3.75 µM | [3] 5.37 µM | [4] 2.93 µM | [5] 2.98 µM | [19] 6.04 µM | [7] 2.41 µM | [8] 8.91 µM | [9] 6.05 µM | [10] 6.12 µM | [11] 5.08 µM | [12] 3.27 µM | [13] 12.6 µM | [14] 4.67 µM | [15] 4.95 µM | [16] 3.03 µM | [17] 4.57 µM | [18] 4.72 µM

Cc1ccc2c(c1)Sc1ccc(/N=N/N(C)C)cc1N2C
inactive: [1] > 100 µM | [2] > 100 µM | [3] 71.1 µM | [4] > 100 µM | [5] 57.7 µM | [6] > 100 µM | [19] > 100 µM | [7] 46 µM | [8] > 100 µM | [9] > 100 µM | [10] > 100 µM | [11] > 100 µM | [12] > 100 µM | [13] > 100 µM | [14] > 100 µM | [15] 78.9 µM | [16] > 100 µM

Cc1occc1/C(S)=N\c1ccc(Cl)c(C(=O)OCC2CC2)c1
inactive: [1] 37.8 µM | [2] 5.81 µM | [3] 30.4 µM | [4] 21.9 µM | [5] 14.9 µM | [6] 53.2 µM | [19] 32 µM | [7] 20.7 µM | [8] 26.7 µM | [9] 34.5 µM | [10] 75.3 µM | [11] 41.6 µM | [12] 35.8 µM | [13] 23.9 µM | [15] 26.7 µM | [16] 34.9 µM | [17] 18.8 µM | [18] 51.6 µM

Cc1nc2c(=O)n3c4c(cccc4c2o1)CCC3
inactive: [1] > 100 µM | [2] > 100 µM | [3] 45.9 µM | [5] 37.9 µM | [6] > 100 µM | [19] > 100 µM | [7] > 100 µM | [8] > 100 µM | [9] > 100 µM | [10] > 100 µM | [11] > 100 µM | [12] > 100 µM | [13] > 100 µM | [14] > 100 µM | [15] > 100 µM | [16] > 100 µM | [17] 72.8 µM | [18] 73.5 µM

O=C(O)/C=C\C(=O)Nc1ccc2c(c1)C(=O)c1cc(F)ccc1-2
inactive: [1] > 100 µM | [2] > 100 µM | [3] > 100 µM | [4] 56.2 µM | [5] > 100 µM | [6] > 100 µM | [19] > 100 µM | [7] > 100 µM | [9] > 100 µM | [10] > 100 µM | [11] > 100 µM | [12] > 100 µM | [13] > 100 µM | [14] > 100 µM | [15] > 100 µM | [16] > 100 µM | [17] > 100 µM | [18] > 100 µM

— ChEMBL document CHEMBL1201862, “PubChem BioAssay data set” (2004)
